This is an account of results in patent US4200650A, “2-Amino-cyclopent-1-ene-1-thiocarboxylic acid-disulfides to treat noradrenergic malfunctions” (Richter Gedeon Vegyeszeti Gyar Rt., priority 1976, dated 1980).

Type in all cases: in vivo, male Wistar rats
Assay [1] has as its system dopamine-β-hydroxylase. The assay can be described thus: Determination of noradrenaline and dopamine levels of brain (dopamine-β-hydroxylase inhibiting effect). The protocol: (§1) The dopamine-β-hydroxylase inhibiting effects of the new compounds according to the invention were examined by the following tests:
(§2) The tests were performed on male Wistar rats weighing 150 to 200 g. The dopamine-β-hydroxylase inhibiting effects of the compounds were evaluated by determining the change of noradrenaline, dopamine and adrenaline levels of the cerebrum, heart, spleen and adrenal gland. The serotonine and 5-hydroxy-indolylacetic acid levels of the cerebrum were also determined. The measurements were performed as follows:
(§3) The animals were decapitated, the cerebrum, heart, spleen and adrenal gland were removed quickly, and the organs were frozen by placing them onto a metal sheet cooled with dry ice. The frozen organs were stored for maximum one night at -20° C.
Determination of the noradrenaline, dopamine, serotonine and 5-hydroxy-indolylacetic acid contents of brain
The brains were homogenized in 10 parts by volume of 0.4 n perchloric acid. The homogenized mixture was stored at -20° C. overnight, thereafter it was thawed and centrifuged as described above. A sample of the homogenized mixture corresponding to 0.5 g of brain was removed, the pH of the sample was adjusted to 8.0±0.1 with 0.1 molar tris-buffer of the above composition, and the sample was processed as described above for the determination of the noradrenaline content of heart and spleen, with the difference that 1.5 ml of 0.05 n perchloric acid were applied as eluting agent. 0.5 ml of the eluate were applied to determine the noradrenaline and dopamine contents. The measurement was performed as described above, with the difference that samples of 0.5 ml were applied for the recording of the fluorescency of noradrenaline. The residua was placed for 50 minutes into a drying oven heated to 100° C., thereafter the sample was cooled with ice water, and the fluorescency of dopamine was recorded at wavelengths of 325 nm (excitation) and 380 nm (emission).
In a further test series the serotonine and 5-hydroxy-indolylacetic acid contents were also determined, beside the determination of the noradrenaline and dopamine content, from the same sample. In this instance the brains were homogenized in 10 ml of 75% ethanol, 0.2 ml of EDTA-Na2 and 5% of ascorbic acid were added to the homogenized mixtures, and the homogenized mixtures were maintained at -20° C. overnight. The mixtures were centrifuged as described above, and 5.0 ml samples of the supernatant were removed. The samples were diluted with equal volumes of distilled water, and poured onto ion exchange columns of 0.5×1.5 cm dimensions, filled with buffered Amberlite CG-30 (200 to 400 mesh). The columns were washed with 5 ml of distilled water followed by 1.0 ml of 0.2 n hydrochloric acid, and the first effluent and the aqueous wash were collected for the determination of 5-hydroxy-indolylacetic acid. Elution was continued with further 1.2 ml of 0.2 n hydrochloric acid in order to remove noradrenaline, dopamine and serotonine. Samples of 0.3 ml were used for the determinations.
Noradrenaline and dopamine were determined by the method of Shellenberger, modified as described above, whereas serotonine was determined by the method of Curzon et al. (Brit. J. Pharmacol. 39, 653/1970/). The basic method was modified as follows: A 0.5% solution of ortho-phthal(di)aldehyde in absolute ethanol was diluted with 10 n hydrochloric acid to 50-fold of its original volume, and 0.6 ml of the resulting 0.01% ortho-phthal(di)aldehyde solution were added immediately to 0.5 ml of the serotonine-containing sample. The sample was placed into a hot water bath for 10 minutes, thereafter cooled with tap water, and the fluorescency was recorded at wavelengths of 360 nm (excitation) and 490 nm (emission).
In the tests disulfiram, 2,2-dipyridyl, bis(1-methyl-4-homopiperazinyl-thriocaronyl)-disulfide, sodium diethyldithiocarbamate and N-phenyl-N'-(2-thiazolyl)-thiourea were applied as reference substances. […]

Assay [2] relates to dopamine-β-hydroxylase. In words: Determination of the noradrenaline content of heart. The following applies: ± standard error. The protocol: as §1, §2, §3
(§4) Determination of the noradrenaline content of heart and spleen
(§5) The organs were weighed in frozen state and then homogenized in 5.0 ml of 0.4 n perchloric acid containing 0.05% of EDTA-Naa and 0.1% of Na2 S2 O5. The homogenized mixtures were centrifuged as described above for the treatment of adrenal gland, the supernatants were decanted, and the pH was adjusted to 8.0±0.1 with a 0.1 molar tris buffer containing 20 g/l of NaOH and 25 g/l of EDTA-Na2. 100 mg of prepared Al2 O3 (Anton et al.: J. Pharm. Ther. 138, 360/1962/) were added to the samples, and the mixtures were shaken mechanically for 20 minutes. Thereafter Al2 O3 was washed with 2×10 ml of distilled water, and noradrenaline was eluted with 1.0 ml of 0.05 n perchloric acid. 0.5 ml samples of the eluate were applied for the determination of noradrenaline. Noradrenaline was determined according to the method of Shellenberger et al. (Anal. Biochem. 39, 356/1971/), with the following modifications of the basic procedure: 0.5 ml of 0.1 molar Na-K-phosphate buffer, containing 9 g/l of EDTA-Na2, were added to 0.5 ml of the eluate, and the catecholamines (noradrenaline in the examination of heart and spleen and noradrenaline and dopamine in the examination of the cerebrum) were oxidized with 0.1 ml of a 0.1 n iodine solution in 5% potassium iodide. After exactly 2 minutes oxidation was stopped by adding 0.25 ml of a 2.5% sodium sulfite solution in 4.4 n aqueous sodium hydroxide to the mixture. 2 minutes after the introduction of the alkaline sulfite solution 0.2 ml of concentrated acetic acid were added to the samples, upon which the pH decreased to 4.4 to 4.5 Thereafter the samples were placed for 5 minutes into a drying oven heated to 100° C., and then the samples were cooled with ice water. The fluorescency of noradrenaline was measured with an OPTON spectrophotometer at wavelengths of 380 nm (excitation) and 490 nm (emission).
(§6) In the tests disulfiram, 2,2-dipyridyl, bis(1-methyl-4-homopiperazinyl-thriocaronyl)-disulfide, sodium diethyldithiocarbamate and N-phenyl-N'-(2-thiazolyl)-thiourea were applied as reference substances. The values indicated in Table 1 are the percentages in relation to the amine levels of the controls measured in the same tests (± standard error). The statistical calculations were performed on a TPA/i type computer, using Student's t test.

For assay [3], the system named is dopamine-β-hydroxylase. The assay can be described thus: Determination of the adrenaline content of adrenal gland. Conditions: ± standard error. The protocol:
as §1, §2, §3
Determination of the adrenaline content of adrenal gland
The adrenal glands were freed from fat and homogenized in 3.0 ml of ice-cold 0.4 n perchloric acid. The homogenized mixtures were centrifuged for 10 minutes at 0° C. with a speed of 3200 r.p.m. using a Janetzky K-70 type centrifuge. 0.05 ml samples were taken from the supernatant, and the adrenaline level was determined directly by the method of Laverty et al. (Anal. Biochem. 22, 269/1968/).
as §6

In assay [4] the test system is dopamine-β-hydroxylase. In words: Determination of the noradrenaline content of spleen. The following applies: ± standard error. The protocol:
as §1, §2, §3, §4, §5, §6

Setting [5] is: i.p., 200 mg/kg, 4 hours, ± standard error.
[6] abbreviates: i.p., 200 mg/kg, 8 hours, ± standard error.
Setting [7] is: i.p., 400 mg/kg, time not given.
The mark [8] stands for this setting: i.p., 50 mg/kg, 4 hours, ± standard error.
Where [9] appears, read: i.p., 100 mg/kg, 4 hours, ± standard error.
Where [10] appears, read: p.o., 500 mg/kg, 4 hours, ± standard error.
The mark [11] stands for this setting: p.o., 500 mg/kg, 8 hours, ± standard error.

SMILES strings stand for the structures.

`S=C(SSC(=S)C1=C(NC2CCCCC2)CCC1)C1=C(NC2CCCCC2)CCC1` [Compound M-5, 2-(N-cyclohexyl)-amino-cyclopent-1-ene-thiocarboxylic acid disulfide]: the “Brain DA (dopamine) level, percentages in relation to the controls” value (shortened to “Brain DA (dopamine) level, percentages”) was 124.2±4.0% in the assay on dopamine-β-hydroxylase [1] (setting [5]) and 116.2±3.3% in the assay on dopamine-β-hydroxylase [1] (setting [6]). The results for the “Brain NA (noradrenaline) level, percentages in relation to the controls” value in the assay on dopamine-β-hydroxylase [1] (setting [5]) and in the assay on dopamine-β-hydroxylase [1] (setting [6]) were 64.6±1.8% and 76.9±2.2%, respectively. In addition, the “Heart NA (noradrenaline) level, percentages in relation to the controls” value is 94.7±6.8% in the assay on dopamine-β-hydroxylase [2] (i.p., 200 mg/kg, 4 hours) and 89.5±3.0% with dopamine-β-hydroxylase [2] (i.p., 200 mg/kg, 8 hours). Further, the “Adrenal gland AD (adrenaline) level, percentages in relation to the controls” value was 109.0±2.3% in the assay on dopamine-β-hydroxylase [3] (i.p., 200 mg/kg, 4 hours) and 105.6±3.3% in the assay on dopamine-β-hydroxylase [3] (i.p., 200 mg/kg, 8 hours). In addition, the “Spleen NA (noradrenaline) level, percentages in relation to the controls” value in the assay with dopamine-β-hydroxylase [4] (i.p., 200 mg/kg, 4 hours) is recorded as 83.2±8.9%; with dopamine-β-hydroxylase [4] (i.p., 200 mg/kg, 8 hours) it was 68.7±6.7%.
As for `CCN(CC)C(=S)[S-].[Na+]` [DDC-Na, sodium diethyldithiocarbamate, reference compound], in the assay with dopamine-β-hydroxylase [1] (setting [7]), the “Brain DA (dopamine) level, percentages” value is 120% and the “Brain NA (noradrenaline) level, percentages in relation to the controls” value amounted to 64.1%.
For the molecule `CCCCNC1=C(C([O-])=S)CCC1.CCCCNC1=C(C([O-])=S)CCC1.[Zn+2]` [Compound M-3, 2-(N-butyl)-amino-cyclopent-1-ene-thiocarboxylic acid-disulfide(zinc salt)], the entries for the “Brain DA (dopamine) level, percentages” value with dopamine-β-hydroxylase [1] (setting [8]), in the assay with dopamine-β-hydroxylase [1] (setting [9]) and in the assay on dopamine-β-hydroxylase [1] (setting [10]) were 112.2±12.0%, 121.3±6.1% and 99.2±5.0%, respectively. The “Brain NA (noradrenaline) level, percentages in relation to the controls” value came out at 85.0±7.1% in the assay with dopamine-β-hydroxylase [1] (setting [8]), 73.5±3.2% in the assay on dopamine-β-hydroxylase [1] (setting [9]) and 98.8±2.5% with dopamine-β-hydroxylase [1] (setting [10]). Besides, the “Heart NA (noradrenaline) level, percentages in relation to the controls” value in the assay on dopamine-β-hydroxylase [2] (i.p., 50 mg/kg, 4 hours) was 84.5±4.1%; with dopamine-β-hydroxylase [2] (i.p., 100 mg/kg, 4 hours), 91.5±8.1%; with dopamine-β-hydroxylase [2] (p.o., 500 mg/kg, 4 hours), 108.8±3.2%. For the same molecule, the “Adrenal gland AD (adrenaline) level, percentages in relation to the controls” value in the assay with dopamine-β-hydroxylase [3] (i.p., 50 mg/kg, 4 hours) was determined as 66.3±5.5%; in the assay on dopamine-β-hydroxylase [3] (i.p., 100 mg/kg, 4 hours) it was 60.5±3.6%; in the assay on dopamine-β-hydroxylase [3] (p.o., 500 mg/kg, 4 hours), 100.3±8.3%.
For the molecule `COCCNC1=C(C(=S)SSC(=S)C2=C(NCCOC)CCC2)CCC1` [Compound M-4, 2-(N-methoxyethyl)-amino-cyclopent-1-ene-thiocarboxylic acid disulfide], the “Brain DA (dopamine) level, percentages” value in the assay with dopamine-β-hydroxylase [1] (setting [9]) is 131.5±8.9%; with dopamine-β-hydroxylase [1] (setting [5]), 134.6±4.0%; in the assay with dopamine-β-hydroxylase [1] (setting [6]) it was 120.6±5.8%; with dopamine-β-hydroxylase [1] (setting [10]) it was 114.5±2.4%; with dopamine-β-hydroxylase [1] (setting [11]), 111.0±4.0%. The “Brain NA (noradrenaline) level, percentages in relation to the controls” value was found to be 41.9±2.7% in the assay with dopamine-β-hydroxylase [1] (setting [9]); 39.6±4.9% in the assay with dopamine-β-hydroxylase [1] (setting [5]); 28.5±1.4% in the assay with dopamine-β-hydroxylase [1] (setting [6]); 73.6±2.8% in the assay on dopamine-β-hydroxylase [1] (setting [10]); 51.2±2.8% in the assay with dopamine-β-hydroxylase [1] (setting [11]). Further, the “Heart NA (noradrenaline) level, percentages in relation to the controls” value with dopamine-β-hydroxylase [2] (i.p., 100 mg/kg, 4 hours) amounted to 91.8±5.9%; with dopamine-β-hydroxylase [2] (i.p., 200 mg/kg, 4 hours), 91.7±9.2%; with dopamine-β-hydroxylase [2] (i.p., 200 mg/kg, 8 hours), 75.7±3.7%; with dopamine-β-hydroxylase [2] (p.o., 500 mg/kg, 4 hours), 86.3±10.1%; in the assay with dopamine-β-hydroxylase [2] (p.o., 500 mg/kg, 8 hours) it was 74.0±8.4%. Also, the “Adrenal gland AD (adrenaline) level, percentages in relation to the controls” value is given as 77.5±6.3% with dopamine-β-hydroxylase [3] (i.p., 100 mg/kg, 4 hours); 96.3±6.7% with dopamine-β-hydroxylase [3] (i.p., 200 mg/kg, 4 hours); 97.0±7.9% with dopamine-β-hydroxylase [3] (i.p., 200 mg/kg, 8 hours); 96.3±6.0% in the assay with dopamine-β-hydroxylase [3] (p.o., 500 mg/kg, 4 hours); 88.1±5.1% in the assay with dopamine-β-hydroxylase [3] (p.o., 500 mg/kg, 8 hours). For the same molecule, the “Spleen NA (noradrenaline) level, percentages in relation to the controls” value is reported as 81.4±10.8% in the assay with dopamine-β-hydroxylase [4] (i.p., 100 mg/kg, 4 hours); 69.9±16.9% with dopamine-β-hydroxylase [4] (i.p., 200 mg/kg, 4 hours); 61.9±9.9% with dopamine-β-hydroxylase [4] (i.p., 200 mg/kg, 8 hours); 103.1±18.9% in the assay with dopamine-β-hydroxylase [4] (p.o., 500 mg/kg, 4 hours); 101.0±14.3% in the assay on dopamine-β-hydroxylase [4] (p.o., 500 mg/kg, 8 hours).
